Data reported in US12661359B2 (Madrigal Pharmaceuticals, Inc., priority 2021, dated 2026).
Values belong to the molecule of their own block, whether it stands above or below them.

Columns and labels:
[1] = tested on: patients with heterozygous familial hypercholesterolemia (HeFH); assay: Phase 2 trial MGL-3196-06 (NCT03038022) in HeFH patients; type: in vivo, human; conditions: MGL-3196 100 mg once daily, 12 weeks
Procedure: A Phase 2 clinical trial was conducted in 116 patients with proven heterozygous familial hypercholesterolemia (HeFH). The primary endpoint was reduction in LDL-C compared with placebo and secondary endpoints included effects on additional lipids and lipoproteins.
MGL-3196-06 (NCT03038022) was a 12-week multicenter, randomized, double blind, placebo-controlled trial in HeFH patients not at LDL-C target on maximally tolerated statins. Patients received MGL-3196 100 mg or placebo once daily for 12 weeks (in a 2:1 ratio) in addition to their LDL-C lowering regimen.

BCRP = target: T1, BCRP (Homo sapiens, UniProt Q9UNQ0); assay: BCRP inhibition and DDI R-value assessment; type: in vitro ADME
T1 sequence (Q9UNQ0 1-655): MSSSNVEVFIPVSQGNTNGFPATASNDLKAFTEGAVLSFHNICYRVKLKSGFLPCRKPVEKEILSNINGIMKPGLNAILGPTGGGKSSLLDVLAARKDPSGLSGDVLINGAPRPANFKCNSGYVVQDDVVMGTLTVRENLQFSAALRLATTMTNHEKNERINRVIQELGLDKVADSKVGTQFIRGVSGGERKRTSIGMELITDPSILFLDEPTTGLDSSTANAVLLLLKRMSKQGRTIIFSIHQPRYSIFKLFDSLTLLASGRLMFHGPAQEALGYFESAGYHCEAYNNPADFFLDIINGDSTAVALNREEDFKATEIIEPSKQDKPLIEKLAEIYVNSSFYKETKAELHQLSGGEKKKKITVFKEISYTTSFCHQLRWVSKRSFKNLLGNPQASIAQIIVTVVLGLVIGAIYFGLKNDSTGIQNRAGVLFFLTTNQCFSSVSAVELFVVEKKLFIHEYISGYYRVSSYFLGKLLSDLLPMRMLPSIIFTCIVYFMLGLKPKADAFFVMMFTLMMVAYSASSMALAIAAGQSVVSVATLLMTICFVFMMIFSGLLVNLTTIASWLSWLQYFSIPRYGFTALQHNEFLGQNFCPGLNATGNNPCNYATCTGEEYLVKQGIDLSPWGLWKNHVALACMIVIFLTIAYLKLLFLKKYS
Description: (§1) Based on the predicted gut-wall BCRP interaction (R=33.5), there is a possible contribution of gut BCRP inhibition to drug interactions.

[2] = cited from earlier work
patients with NASH = conditions: cited from earlier work
P-gp = P-gp (Homo sapiens, UniProt P08183); assay: P-gp inhibition; type: in vitro ADME
Chain of P-gp (P08183 whole entry): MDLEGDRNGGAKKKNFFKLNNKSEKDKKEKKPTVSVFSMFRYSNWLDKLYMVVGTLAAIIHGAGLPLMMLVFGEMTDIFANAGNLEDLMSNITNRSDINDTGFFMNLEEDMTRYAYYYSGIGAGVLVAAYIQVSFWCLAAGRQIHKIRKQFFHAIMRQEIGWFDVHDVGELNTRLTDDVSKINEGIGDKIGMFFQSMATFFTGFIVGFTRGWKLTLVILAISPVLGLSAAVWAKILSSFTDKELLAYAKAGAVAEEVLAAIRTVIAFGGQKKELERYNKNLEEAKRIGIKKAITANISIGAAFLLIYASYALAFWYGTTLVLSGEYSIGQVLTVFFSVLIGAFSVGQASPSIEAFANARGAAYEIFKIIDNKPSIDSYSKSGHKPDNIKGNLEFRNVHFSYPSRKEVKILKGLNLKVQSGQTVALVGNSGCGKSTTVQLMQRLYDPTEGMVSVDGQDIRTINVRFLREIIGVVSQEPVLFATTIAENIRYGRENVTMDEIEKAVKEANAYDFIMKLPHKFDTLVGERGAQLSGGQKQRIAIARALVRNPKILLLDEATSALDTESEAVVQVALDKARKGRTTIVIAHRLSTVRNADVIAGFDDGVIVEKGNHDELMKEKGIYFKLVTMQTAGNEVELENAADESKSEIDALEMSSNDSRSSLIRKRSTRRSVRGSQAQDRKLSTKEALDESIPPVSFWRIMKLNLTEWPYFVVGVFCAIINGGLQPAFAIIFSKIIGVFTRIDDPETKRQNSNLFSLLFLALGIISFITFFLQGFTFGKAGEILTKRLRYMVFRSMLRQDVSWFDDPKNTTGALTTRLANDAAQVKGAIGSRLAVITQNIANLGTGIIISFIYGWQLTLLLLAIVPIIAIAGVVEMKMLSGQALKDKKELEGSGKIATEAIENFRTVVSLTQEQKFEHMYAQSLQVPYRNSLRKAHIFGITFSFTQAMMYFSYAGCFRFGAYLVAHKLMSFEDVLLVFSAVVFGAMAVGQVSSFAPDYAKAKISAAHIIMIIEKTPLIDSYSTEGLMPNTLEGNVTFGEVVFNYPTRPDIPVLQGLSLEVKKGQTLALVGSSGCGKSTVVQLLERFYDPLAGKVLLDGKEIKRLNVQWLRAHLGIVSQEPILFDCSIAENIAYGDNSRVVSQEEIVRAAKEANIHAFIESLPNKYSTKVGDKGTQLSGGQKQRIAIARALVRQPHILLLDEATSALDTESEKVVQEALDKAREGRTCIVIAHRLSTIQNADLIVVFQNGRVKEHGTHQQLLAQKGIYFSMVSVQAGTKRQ
Description: as §1

[3] = human, in vivo
human OSTαβ = target: T2, human OSTαβ (Homo sapiens, UniProt Q86UW1+Q86UW2); assay: OSTαβ-mediated transport in transfected MDCK-II cells versus control cells
T2 sequence (Q86UW1 1-340): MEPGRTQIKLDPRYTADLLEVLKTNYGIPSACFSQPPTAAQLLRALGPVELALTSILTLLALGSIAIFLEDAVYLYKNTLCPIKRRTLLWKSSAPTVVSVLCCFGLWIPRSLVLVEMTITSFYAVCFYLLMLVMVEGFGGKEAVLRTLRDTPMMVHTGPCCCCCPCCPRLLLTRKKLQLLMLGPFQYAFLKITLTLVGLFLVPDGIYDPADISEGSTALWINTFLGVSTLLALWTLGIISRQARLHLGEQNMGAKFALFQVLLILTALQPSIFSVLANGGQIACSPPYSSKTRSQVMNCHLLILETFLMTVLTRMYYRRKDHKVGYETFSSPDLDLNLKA
T2 sequence (Q86UW2 1-128): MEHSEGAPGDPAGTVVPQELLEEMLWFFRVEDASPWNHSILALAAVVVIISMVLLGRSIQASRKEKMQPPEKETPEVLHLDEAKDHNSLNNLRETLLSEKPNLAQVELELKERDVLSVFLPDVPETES
Procedure: Transfected cells and control cells are both exposed to the compound, and the concentration of the compound in the transfected cells and the control cells are then measured. An uptake ratio can then be calculated to quantify the difference of the concentration, indicating whether OSTαβ mediates the transport of the compound.
MGL-3196 was tested as a potential substrate for human OSTαβ-mediated transport.

clinical = conditions: human, in vivo; for AUC(0-inf): AUCinf; for AUC(0-t): AUClast

- Inhibition of BCRP (in words) (BCRP): moderate inhibitor
- DDI R-value (BCRP; Biliary/renal/BBB, [Ifree]/IC50 ≥ 0.02): 0.004
- DDI R-value (BCRP; Intestine, [I2]/IC50 ≥ 10, predicted gut-wall BCRP interaction): 33.5
- Inhibition of P-gp (in words) (P-gp): not an inhibitor
- Substrate for human OSTαβ (conclusion in words) (human OSTαβ; MDCK): may be a substrate
- Accumulation in control cells (human OSTαβ; dog, MDCK, 1 μM): 1.91 ± 0.220 pmol/min/cm^2
- Accumulation in control cells (human OSTαβ; dog, MDCK, 10 μM): 11.3 ± 0.500 pmol/min/cm^2
- Accumulation in control cells (human OSTαβ; dog, MDCK, 100 μM): 49.3 ± 6.28 pmol/min/cm^2
- Accumulation in transporter cells (human OSTαβ; human, MDCK, 1 μM): 2.58 ± 0.103 pmol/min/cm^2
- Net accumulation (human OSTαβ; human, MDCK, 1 μM): 0.670 ± 0.103 pmol/min/cm^2
- Accumulation in transporter cells (human OSTαβ; human, MDCK, 10 μM): 21.9 ± 0.810 pmol/min/cm^2
- Net accumulation (human OSTαβ; human, MDCK, 10 μM): 10.6 ± 0.810 pmol/min/cm^2
- Accumulation in transporter cells (human OSTαβ; human, MDCK, 100 μM): 137 ± 12.8 pmol/min/cm^2
- Net accumulation (human OSTαβ; human, MDCK, 100 μM): 88.1 ± 12.8 pmol/min/cm^2
Structure (SMILES): CC(C)c1cc(Oc2c(Cl)cc(-n3nc(C#N)c(=O)[nH]c3=O)cc2Cl)n[nH]c1=O [MGL-3196, 2-(3,5-dichloro-4-((5-isopropyl-6-oxo-1,6-dihydropyridazin-3-yl)oxy)phenyl)-3,5-dioxo-2,3,4,5-tetrahydro-1,2,4-triazine-6-carbonitrile]
- LDL-C and other atherogenic lipids lowering in patients with HeFH ([1]; versus placebo): statistically significantly lowers
- Apolipoprotein B (ApoB) lowering ([1]; versus placebo, p<0.0001): −18-29%
- Apolipoprotein CIII (Apo CIII) lowering ([1]; versus placebo, p<0.0001): −22%
- Lipoprotein (a) (Lp(a)) lowering ([1]; versus placebo, p<0.0001): −26-33%
- Triglyceride (TG) lowering ([1]; versus placebo, p<0.0001): −25-31%
- LDL-C lowering compared to placebo ([1]; prespecified group of patients intolerant of high intensity statin doses): 28.5%
- Effect on elevated liver enzymes ([2]; NASH patients): reduces elevated liver enzymes
- Safety profile ([2]; in vivo): clean safety profile
- Suppression of the central thyroid axis, THR-α effects on heart rate or bone ([2]; in vivo): neither suppression of the central thyroid axis nor THR-α effects on heart rate or bone
- Reducing hepatic fat compared to placebo (patients with NASH; after 12 weeks and 36 weeks of treatment): effective
- Improving markers of liver injury and fibrosis compared to placebo (patients with NASH): effective
- Reducing atherogenic lipids and lipoproteins (LDL cholesterol, apolipoprotein B, triglycerides, lipoprotein(a), apolipoprotein CIII) compared to placebo (patients with NASH): effective
- Safety issues such as liver enzyme or creatine kinase (CK) elevations [3]: no safety issues were observed

- AUC(0-inf) (clinical; 10 mg, mean): 51.7 ng·h/mL
- AUC(0-t) (clinical; 10 mg, mean): 44.5 ng·h/mL
- Tmax (clinical; 10 mg, Tmax, mean): 4.56 h
- AUC(0-inf) (clinical; geometric mean): 46.6 ng·h/mL
- AUC(0-t) (clinical; geometric mean): 38 ng·h/mL
- Cmax, geometric mean [3]: 3.11 ng/mL
- % AUCexts, mean ([3]; 10 mg): 10.6%
- Cmax, mean ([3]; 10 mg): 3.62 ng/mL
- T1/2, mean ([3]; 10 mg): 18.2 h
- Accumulation in control cells (human OSTαβ; dog, MDCK, 1 μM): 0.0557 ± 0.00359 pmol/min/cm^2
- Accumulation in control cells (human OSTαβ; dog, MDCK, 10 μM): 0.297 ± 0.0377 pmol/min/cm^2
- Accumulation in control cells (human OSTαβ; human, MDCK, 0.1 μM): 0.00664 ± 0.00215 pmol/min/cm^2
- Accumulation in transporter cells (human OSTαβ; human, MDCK, 0.1 μM): 0.00894 ± 0.000845 pmol/min/cm^2
- Net accumulation (human OSTαβ; human, MDCK, 0.1 μM): 0.0023 ± 0.000845 pmol/min/cm^2
- Accumulation in transporter cells (human OSTαβ; human, MDCK, 1 μM): 0.0575 ± 0.00167 pmol/min/cm^2
- Net accumulation (human OSTαβ; human, MDCK, 1 μM): 0.00176 ± 0.00167 pmol/min/cm^2
- Accumulation in transporter cells (human OSTαβ; human, MDCK, 10 μM): 0.459 ± 0.0599 pmol/min/cm^2
- Net accumulation (human OSTαβ; human, MDCK, 10 μM): 0.162 ± 0.0599 pmol/min/cm^2
Structure (SMILES): CC(C)c1nc(N(C)S(C)(=O)=O)nc(-c2ccc(F)cc2)c1/C=C/[C@@H](O)C[C@@H](O)CC(=O)O [rosuvastatin, (E)-7-[4-(4-fluorophenyl)-6-isopropyl-2-[methyl(methylsulfonyl)amino]pyrimidin-5-yl](3R,5S)-3,5-dihydroxyhept-6-enoic acid, reference compound]

Structure (SMILES): C[C@H](CCC(=O)NCCS(=O)(=O)O)[C@H]1CC[C@H]2[C@@H]3[C@H](O)C[C@@H]4C[C@H](O)CC[C@]4(C)[C@H]3C[C@H](O)[C@]12C [taurocholic acid, reference compound]
- Net accumulation (human OSTαβ; 1 μM substrate): 0.0809 ± 0.0105 pmol/min/cm^2
- Accumulation in transporter cells (human OSTαβ; 1 μM substrate, OSTαβ MDCK-II cells): 0.109 ± 0.0105 pmol/min/cm^2
